Experimental findings from USRE43000E1, “Artificial riboswitch for controlling pre-mRNA splicing” (City of Hope, priority 2005, dated 2011) are described below.

What all share (format): biochemical
The test system of assay [1] is ABT0M pre-mRNA. In words: Alternative splicing (exon 2 exclusion/inclusion) of ABT0M pre-mRNA in vitro. An excerpt:
Naturally-occurring RNA structure elements as well as artificial stem-loop structures are known to influence alternative splicing. To determine whether theophylline-induced secondary structure can likewise influence alternative splicing, a series of model splicing substrates were constructed consisting of three exons interrupted by two introns (FIG. 28). While intron 1 BPS was inserted within TBS, the BPS of intron 2 remained unchanged. The strength of 5′ ss in exon 2 increased in the following order: ABT0M<ABT2M<ABT4M<ABT6M<ABT8M. It was hypothesized that in the presence of theophylline, intron 1 branchpoint would be sequestered within the RNA-theophylline complex, which in turn should repress excision of intron 1 and enable intron 2 branchpoint to choose between the 5′ ss of exons 1 and 2 for the first step of splicing. […]
(§1) Nuclear extracts were prepared from HeLa cells (obtained from National Cell Culture), essentially as described by Dignam et al., (Dignam et al., 1983). […] Splicing intermediates and products were analyzed by electrophoresis in 13% denaturing polyacrylamide gels. The fractionated RNAs were visualized by PhosphorImager (Molecular Dynamics) and RNA signals were quantified by ImageQuant version 4.2 software (Molecular Dynamics) or ImageJ version 1.36 software (Rasband, W. S., ImageJ, U.S. National Institutes of Health, Bethesda, Md., http://rsb.info.nih.gov/ij, 1997-2006).

Assay [2] concerns AdML BPT15AG pre-mRNA. The assay is described as follows: In vitro splicing of AdML pre-mRNA with branchpoint sequence within the theophylline aptamer (AdML BPT15AG). An excerpt:
Since the choice of alternative splice sites is generally made at early stages of spliceosome assembly, it was next examined whether a theophylline riboswitch could be engineered to control splicing prior to the first step. A series of pre-mRNA substrates were constructed in which the branchpoint sequence (BPS) was inserted within the theophylline aptamer. […] To determine whether theophylline-mediated inhibition was dose dependent and to identify the optimum concentration for controlling splicing, the splicing experiment was repeated using AdML BPT15AG in the presence of varying concentrations of theophylline.
Nuclear extracts were prepared from HeLa cells (obtained from National Cell Culture), essentially as described by Dignam et al., (Dignam et al., 1983). To ensure that theophylline binds to its RNA target, a solution (5 μl) consisting of ^32P-labeled pre-mRNA (5-10 fmol, ˜10,000 cpm per reaction), indicated concentration of theophylline, 0.5 μl BC300 (20 mM HEPES, pH 8.0, 20% glycerol, 300 mM KCl, 0.2 mM EDTA) and 0.25 μl 160 mM MgCl2 were heated to 65° C. for 5 minutes, followed by 20 minutes incubation at room temperature. Next, 0.5 mM ATP, 20 mM creatine phosphate, 0.4 units of RNasin (Promega), 1.0 mM DTT, 6.25 μl HeLa nuclear extract, and water up to 12.5 μl (all concentrations are final) was added and incubation continued at 30° C. for the indicated time. Where indicated, theophylline was substituted by caffeine or water. […] Splicing intermediates and products were analyzed by electrophoresis in 13% denaturing polyacrylamide gels. The fractionated RNAs were visualized by PhosphorImager (Molecular Dynamics) and RNA signals were quantified by ImageQuant version 4.2 software (Molecular Dynamics) or ImageJ version 1.36 software (Rasband, W. S., ImageJ, U.S. National Institutes of Health, Bethesda, Md., http://rsb.info.nih.gov/ij, 1997-2006).

Assay [3] deals with BclxSHTheo510 and BclxSHTheo513 pre-mRNAs. In words: In vitro alternative splicing of Bcl-x minigene derivatives. Conditions: 10- and 13-nucleotide stem substrates. Here is the method:
Nuclear extracts were prepared from HeLa cells (obtained from National Cell Culture), essentially as described by Dignam et al., (Dignam et al., 1983). To ensure that theophylline binds to its RNA target, a solution (5 μl) consisting of ^32P-labeled pre-mRNA (5-10 fmol, ˜10,000 cpm per reaction), indicated concentration of theophylline, 0.5 μl BC300 (20 mM HEPES, pH 8.0, 20% glycerol, 300 mM KCl, 0.2 mM EDTA) and 0.25 μl 160 mM MgCl2 were heated to 65° C. for 5 minutes, followed by 20 minutes incubation at room temperature. Next, 0.5 mM ATP, 20 mM creatine phosphate, 0.4 units of RNasin (Promega), 1.0 mM DTT, 6.25 μl HeLa nuclear extract, and water up to 12.5 μl (all concentrations are final) was added and incubation continued at 30° C. for the indicated time. Where indicated, theophylline was substituted by caffeine or water. Splicing reaction was terminated by the addition of 125 μl stop buffer (100 mM Tris-HCl, pH 7.5, 10 mM EDTA, 1% SDS, 150 mM NaCl, 300 mM sodium acetate) followed by phenol-chloroform extraction and isolation of the RNA by ethanol precipitation.

Assay [4] deals with AdMLTheo54Mut, AdMLTheo57Mut, AdMLTheo510Mut, AdMLTheo513Mut pre-mRNAs. The assay is described as follows: In vitro splicing of AdML pre-mRNAs with 5′ ss embedded in the theophylline aptamer.
From the text: Similar experiments were run using pre-mRNA substrates wherein the 5′ ss rather than the 3′ ss was embedded within the theophylline binding aptamer. Plasmids encoding […] 5′ ss embedded AdML pre-mRNA derivatives (AdMLTheo54Mut, AdMLTheo57Mut, AdMLTheo510Mut, and AdMLTheo513Mut) were constructed using a standard PCR based approach (FIG. 32A). The length of the lower aptamer stem in these substrates varied from 4 to 13 nucleotides. To prevent the activation of a cryptic 5′ ss, the GU's (potential 5′ ss) upstream of the authentic 5′ ss were mutated to GC. […] The proximal to distal product ratio decreased in the presence of theophylline in the 10- and 13-nucleotide lower aptamer substrates (FIGS. 34A and B). Theophylline induced alternative splicing in a dose-dependent manner (FIGS. 35A and B).
as §1

Assay [5] concerns AdML-Theo-29AG pre-mRNA. In words: Spliceosome assembly assay with AdML-Theo-29AG pre-mRNA.
Method: To investigate the effect of theophylline on spliceosome assembly, ^32P-labeled AdML-Theo-29AG pre-mRNA was incubated under splicing conditions in the absence or presence of theophylline. Aliquots were removed at various time points, followed by the separation of complexes on native agarose gels according to the published protocol (Das and Reed, 1999).
(§2) Spliceosome assembly and separation of individual complexes were performed essentially as described earlier (Das and Reed, 1999). Briefly, pre-mRNA (˜5 ng) was incubated in HeLa nuclear extract in the absence or presence of theophylline (12.5 μl total volume) under the conditions that support in vitro splicing. After the incubation, 2.5 μl of 4 μg/μl heparin and 2.5 μl of 5× loading dye containing 1×TBE (89 mM Tris, 89 mM boric acid, 2.5 mM EDTA), 20% glycerol, 0.25% bromophenol blue, 0.25% xylene cyanol) was added and the 3 μl aliquots of each reaction mixture were loaded on a 2% horizontal low-melting agarose gels followed by the spliceosome complexes at 70 V for 3 h in Tris-glycine running buffer at room temperature (Konarska and Sharp, 1986). Gels were fixed in 10% acetic acid, 10% methanol for 30 min, and then dried under vacuum at 80° C.
The subject of assay [6] is AdMLTheo510Mut pre-mRNA. The assay is described as follows: Spliceosome assembly assay with 5′ ss embedded substrate (AdMLTheo510Mut). Particulars: 2 mM theophylline.
Method: (A), ^32P-labeled AdMLTheo510Mut was subjected to a spliceosome assembly assay in the absence or presence of 2 mM theophylline. Bands representing splicing complex H, A, and B/C are marked on the left.
as §2

“Also recorded” adds a separate entry of the source.

Consider `Cn1c(=O)c2[nH]cnc2n(C)c1=O` [theophylline], for which the “exon 2 exclusion in ABT0M splicing vs control” value in assay [1] was “promoted exon 2 exclusion”. In addition, the “effect on AdML BPT15AG splicing reaction” value in assay [2] (250 μM theophylline) is listed as “could affect the splicing reaction; also recorded: can affect splicing reaction”. In addition, the “splicing inhibition of AdML BPT15AG” value in assay [2] (0.5 mM theophylline) came to 50%. In addition, the “yield of spliced product of AdML derivatives with BPS in upper aptamer stem” value in assay [2] (AdMLBPT12AG, AdMLBPT15AG, AdMLBPT18AG, theophylline added) was “significantly lowered the yield of the spliced product”. For the same compound, the “distal to proximal product ratio of Bcl-x minigene derivatives” value in assay [3] is “increased”. Moreover, the “proximal to distal product ratio” value in assay [4] (10- and 13-nucleotide lower aptamer substrates) is given as “decreased”. Also, the “effect on splicing of 5′ ss embedded substrates” value in assay [4] (lower aptamer stem 4 to 13 nucleotides) is “inhibit splicing”. The “effect on spliceosomal complexes” value in assay [5] is listed as “accumulation of complex C”. Further, the “effect on spliceosome assembly, 5′ ss embedded substrate” value in assay [6] was “inhibit spliceosome assembly”.
